11 compounds from patent US6544990B2, “Substituted quinolinecarboxamides as antiviral agents” (Pharmacia & Upjohn Company, priority 2001, dated 2003) can be followed below.

SMILES strings stand for the structures.

One series deals with VZV polymerase (Varicella-zoster virus, UniProt P09252). The series is described as follows: Polymerase scintillation proximity assay (SPA), VZV. In kind it is biochemical.
The target in a further series is HSV polymerase (Human herpesvirus 1, UniProt P04293). The series is described as follows: Polymerase scintillation proximity assay (SPA), HSV. In kind it is biochemical.
Sequence of HSV polymerase (P04293 whole entry): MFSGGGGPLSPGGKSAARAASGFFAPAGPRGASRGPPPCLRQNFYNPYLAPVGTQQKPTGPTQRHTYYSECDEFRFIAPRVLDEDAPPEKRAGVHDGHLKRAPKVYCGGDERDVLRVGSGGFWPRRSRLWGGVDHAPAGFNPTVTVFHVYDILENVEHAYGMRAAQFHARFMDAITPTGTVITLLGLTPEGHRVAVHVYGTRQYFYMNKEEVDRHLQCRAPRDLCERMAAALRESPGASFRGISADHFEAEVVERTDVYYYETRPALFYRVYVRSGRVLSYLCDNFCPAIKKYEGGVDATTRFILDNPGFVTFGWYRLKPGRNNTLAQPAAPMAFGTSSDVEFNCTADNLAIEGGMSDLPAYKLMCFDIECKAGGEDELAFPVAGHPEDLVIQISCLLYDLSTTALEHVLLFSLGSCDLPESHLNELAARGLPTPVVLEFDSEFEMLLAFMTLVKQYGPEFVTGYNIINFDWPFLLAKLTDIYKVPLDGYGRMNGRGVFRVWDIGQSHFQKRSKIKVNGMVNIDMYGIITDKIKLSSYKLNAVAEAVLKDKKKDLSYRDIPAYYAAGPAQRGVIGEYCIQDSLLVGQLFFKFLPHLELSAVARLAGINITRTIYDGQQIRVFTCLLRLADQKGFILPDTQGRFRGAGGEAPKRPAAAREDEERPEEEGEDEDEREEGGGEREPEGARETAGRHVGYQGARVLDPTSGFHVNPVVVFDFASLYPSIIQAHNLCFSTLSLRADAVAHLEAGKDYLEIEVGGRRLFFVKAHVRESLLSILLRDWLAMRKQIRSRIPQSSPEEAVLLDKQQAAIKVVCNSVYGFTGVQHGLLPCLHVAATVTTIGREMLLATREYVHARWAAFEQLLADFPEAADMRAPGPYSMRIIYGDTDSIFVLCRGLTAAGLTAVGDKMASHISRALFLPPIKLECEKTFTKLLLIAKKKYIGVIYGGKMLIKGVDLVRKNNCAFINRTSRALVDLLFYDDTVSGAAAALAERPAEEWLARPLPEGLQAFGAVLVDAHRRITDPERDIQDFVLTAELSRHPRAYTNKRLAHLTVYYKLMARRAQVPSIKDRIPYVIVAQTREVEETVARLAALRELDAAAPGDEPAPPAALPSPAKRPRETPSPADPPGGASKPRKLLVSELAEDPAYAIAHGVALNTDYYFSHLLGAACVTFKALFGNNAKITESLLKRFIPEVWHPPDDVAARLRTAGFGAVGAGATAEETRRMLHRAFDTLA
A further series has as its target T1, HCMV polymerase (Human cytomegalovirus, UniProt P08546).
T1 construct: made in house; host or cells: recombinant baculovirus-infected SF-9 cells
Put plainly: HCMV polymerase scintillation proximity assay (SPA). In kind it is biochemical. Particulars: CMV polymerase. Here is the method: The HCMV polymerase assay is performed using a scintillation proximity assay (SPA) as described in several references, such as N. D. Cook, et al., Pharmaceutical Manufacturing International, pages 49-53 (1992); K. Takeuchi, Laboratory Practice, September issue (1992); U.S. Pat. No. 4,568,649 (1986); which are incorporated by reference herein. Reactions are performed in 96-well plates. The assay is conducted in 100 μl volume with 5.4 mM HEPES (pH 7.5), 11.7 mM KCl, 4.5 mM MgCl2, 0.36 mg/ml BSA, and 90 nM 3H-dTTP. Assays are run with and without CHAPS, (3-[(3-Cholamidopropyl)-dimethylammonio]-1-propane-sulfonate) at a final concentration of 2 mM. HCMV polymerase is diluted in enzyme dilution buffer containing 50% glycerol, 250 mM NaCl, 10 mM HEPES (pH 7.5), 100 μg/ml BSA, and 0.01% sodium azide. The HCMV polymerase, which is expressed in recombinant baculovirus-infected SF-9 cells and purified according to literature procedures, is added at 10% (or 10 μl ) of the final reaction volume, i.e., 100 μl. Compounds are diluted in 50% DMSO and 10 μl are added to each well. Control wells contain an equivalent concentration of DMSO. Unless noted otherwise, reactions are initiated via the addition of 6 nM biotinylated poly(dA)-oligo(dT) template/primer to reaction mixtures containing the enzyme, substrate, and compounds of interest. Plates are incubated in a 25 C or 37 C H20 bath and terminated via the addition of 40 μl/reaction of 0.5 M EDTA (pH 8) per well. Reactions are terminated within the time-frame during which substrate incorporation is linear and varied depending upon the enzyme and conditions used, i.e., 30 min. for HCMV polymerase. Ten μl of streptavidin-SPA beads (20 mg/mil in PBS/10% glycerol) are added following termination of the reaction. Plates are incubated 10 min. at 37 C, then equilibrated to room temperature, and counted on a Packard Topcount. Linear regressions are performed and IC50's are calculated using computer software.
A modified version of the above HCMV polymerase assay is performed as described above, but with the following changes: Compounds are diluted in 100% DMSO until final dilution into assay buffer. In the previous assay, compounds are diluted in 50% DMSO. 4.5 mM dithiotherotol (DTT) is added to the polymerase buffer.

T1 sequence (P08546 whole entry): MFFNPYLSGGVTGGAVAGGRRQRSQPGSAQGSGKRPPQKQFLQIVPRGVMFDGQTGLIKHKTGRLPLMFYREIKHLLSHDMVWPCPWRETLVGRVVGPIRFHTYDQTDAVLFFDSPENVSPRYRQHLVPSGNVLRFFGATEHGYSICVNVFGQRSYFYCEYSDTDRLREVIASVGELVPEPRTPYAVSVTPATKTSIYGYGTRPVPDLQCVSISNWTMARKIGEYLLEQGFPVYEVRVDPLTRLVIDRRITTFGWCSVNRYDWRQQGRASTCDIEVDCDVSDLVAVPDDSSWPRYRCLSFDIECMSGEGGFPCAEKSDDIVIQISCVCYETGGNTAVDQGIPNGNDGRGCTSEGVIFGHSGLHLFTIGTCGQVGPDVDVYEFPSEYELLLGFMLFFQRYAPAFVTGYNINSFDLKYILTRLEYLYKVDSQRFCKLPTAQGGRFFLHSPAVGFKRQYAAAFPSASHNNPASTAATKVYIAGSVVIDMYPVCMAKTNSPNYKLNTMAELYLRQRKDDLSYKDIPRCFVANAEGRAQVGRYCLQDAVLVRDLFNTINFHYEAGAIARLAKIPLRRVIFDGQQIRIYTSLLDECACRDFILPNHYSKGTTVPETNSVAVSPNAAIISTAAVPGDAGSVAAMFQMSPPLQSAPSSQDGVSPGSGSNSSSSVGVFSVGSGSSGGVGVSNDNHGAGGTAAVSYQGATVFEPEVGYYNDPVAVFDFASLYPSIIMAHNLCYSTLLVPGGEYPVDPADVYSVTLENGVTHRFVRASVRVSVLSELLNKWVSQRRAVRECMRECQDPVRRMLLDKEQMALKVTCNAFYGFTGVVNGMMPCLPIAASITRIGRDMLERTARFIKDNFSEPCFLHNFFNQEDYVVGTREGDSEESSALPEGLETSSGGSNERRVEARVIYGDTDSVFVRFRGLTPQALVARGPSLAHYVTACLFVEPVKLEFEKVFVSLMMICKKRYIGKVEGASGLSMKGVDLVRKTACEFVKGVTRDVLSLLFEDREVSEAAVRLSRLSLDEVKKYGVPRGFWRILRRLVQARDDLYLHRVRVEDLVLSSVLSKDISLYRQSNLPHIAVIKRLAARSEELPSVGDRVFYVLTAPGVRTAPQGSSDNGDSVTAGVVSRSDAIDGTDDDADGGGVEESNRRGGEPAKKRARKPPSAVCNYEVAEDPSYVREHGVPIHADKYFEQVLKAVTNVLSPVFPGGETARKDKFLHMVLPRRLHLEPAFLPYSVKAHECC
Sequence of VZV polymerase (P09252 whole entry): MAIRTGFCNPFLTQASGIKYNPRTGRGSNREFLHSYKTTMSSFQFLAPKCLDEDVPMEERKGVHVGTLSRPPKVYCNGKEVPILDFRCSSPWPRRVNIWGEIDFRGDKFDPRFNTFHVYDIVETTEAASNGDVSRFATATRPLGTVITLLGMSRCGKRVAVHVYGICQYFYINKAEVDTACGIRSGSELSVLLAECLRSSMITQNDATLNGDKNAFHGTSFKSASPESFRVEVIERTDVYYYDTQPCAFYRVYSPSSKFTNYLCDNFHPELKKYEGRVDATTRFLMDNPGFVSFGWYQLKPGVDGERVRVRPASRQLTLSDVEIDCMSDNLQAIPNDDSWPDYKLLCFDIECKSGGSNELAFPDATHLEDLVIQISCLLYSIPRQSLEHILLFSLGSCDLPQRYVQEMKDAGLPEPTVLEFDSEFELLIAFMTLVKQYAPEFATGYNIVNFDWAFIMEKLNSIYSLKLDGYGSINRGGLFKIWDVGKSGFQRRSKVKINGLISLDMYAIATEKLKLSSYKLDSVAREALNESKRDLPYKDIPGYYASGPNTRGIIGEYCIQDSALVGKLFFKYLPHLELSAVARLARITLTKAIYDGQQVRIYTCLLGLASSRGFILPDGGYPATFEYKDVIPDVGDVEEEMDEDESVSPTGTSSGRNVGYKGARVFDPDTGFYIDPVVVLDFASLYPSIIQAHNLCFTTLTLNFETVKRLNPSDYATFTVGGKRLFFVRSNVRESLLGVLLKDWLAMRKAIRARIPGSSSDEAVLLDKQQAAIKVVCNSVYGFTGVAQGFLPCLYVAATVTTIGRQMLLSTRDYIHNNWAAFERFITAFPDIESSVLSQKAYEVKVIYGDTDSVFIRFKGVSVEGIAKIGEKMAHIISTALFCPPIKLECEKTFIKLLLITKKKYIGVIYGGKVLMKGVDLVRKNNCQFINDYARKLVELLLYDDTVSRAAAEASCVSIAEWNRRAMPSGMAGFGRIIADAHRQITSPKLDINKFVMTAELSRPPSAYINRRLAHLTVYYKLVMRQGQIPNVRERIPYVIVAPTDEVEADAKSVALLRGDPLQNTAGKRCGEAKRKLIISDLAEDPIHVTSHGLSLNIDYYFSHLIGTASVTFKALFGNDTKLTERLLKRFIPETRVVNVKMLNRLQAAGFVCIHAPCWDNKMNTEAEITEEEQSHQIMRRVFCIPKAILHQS

The compound `Cn1cc(C(=O)NCc2ccc(Cl)cc2)c(=O)c2cc(CN3CCOCC3)cc(C#CCO)c21` [Example 4, N-(4-chlorobenzyl)-8-(3-hydroxy-1-propynyl)-1-methyl-6-(4-morpholinylmethyl)-4-oxo-1,4-dihydro-3-quinolinecarboxamide] had a melting point of 180 to 183 °C. On VZV polymerase, this compound displayed a 50% inhibitory concentration (IC50) of 0.36 µM. It took 0.83 µM to reach half-maximal inhibition at HSV polymerase (IC50). The compound also displayed an IC50 on HCMV polymerase of 0.83 µM.

Consider `Cn1cc(C(=O)NCc2ccc(Cl)cc2)c(=O)c2cc(CN3CCOCC3)cc(C#CCCO)c21` [Example 6, N-(4-chlorobenzyl)-8-(4-hydroxy-1-butynyl)-1-methyl-6-(4-morpholinylmethyl)-4-oxo-1,4-dihydro-3-quinolinecarboxamide], for which the melting point was in the range of 168 to 170 °C. The compound further had a concentration for half-maximal inhibition (IC50) at VZV polymerase of 0.36 µM. Further, at HSV polymerase, the IC50 was 0.82 µM. This compound came in with an IC50 on HCMV polymerase of 0.8 µM.

`C[C@H](O)C#Cc1cc(CN2CCOCC2)cc2c(=O)c(C(=O)NCc3ccc(Cl)cc3)cn(C)c12` [Example 7, N-(4-chlorobenzyl)-8-[(3S)-3-hydroxy-1-butynyl]-1-methyl-6-(4-morpholinylmethyl)-4-oxo-1,4-dihydro-3-quinolinecarboxamide] returned a melting point of 158 to 161 °C. At VZV polymerase, this compound had an IC50 of 0.18 µM. At HSV polymerase, this compound came in with a half-maximal inhibitory concentration (IC50) of 0.45 µM. Further, the IC50 against HCMV polymerase stood at 0.76 µM.

`C[C@@H](O)C#Cc1cc(CN2CCOCC2)cc2c(=O)c(C(=O)NCc3ccc(Cl)cc3)cn(C)c12` [Example 8, N-(4-chlorobenzyl)-8-[(3R)-3-hydroxy-1-butynyl]-1-methyl-6-(4-morpholinylmethyl)-4-oxo-1,4-dihydro-3-quinolinecarboxamide] came in with a melting point of 147 to 150 °C. The compound further had an IC50 on VZV polymerase of 0.48 µM. In addition, the IC50 on HSV polymerase was 1 µM. This compound also yielded an IC50 against HCMV polymerase of 0.87 µM.

Compound `Cn1cc(C(=O)NCc2ccc(Cl)cc2)c(=O)c2cc(CN3CCOCC3)cc(C#CCCCO)c21` [Example 10, N-(4-chlorobenzyl)-8-(5-hydroxy-1-pentynyl)-1-methyl-6-(4-morpholinylmethyl)-4-oxo-1,4-dihydro-3-quinolinecarboxamide] showed a melting point of 179 to 182 °C. The compound further returned an IC50 at VZV polymerase of 0.16 µM. At HSV polymerase, this compound registered an IC50 of 0.41 µM. This compound also had an IC50 against HCMV polymerase of 0.48 µM.

In the case of `Cn1cc(C(=O)NCc2ccc(Cl)cc2)c(=O)c2cc(CN3CCOCC3)cc(C#CCN3CCS(=O)(=O)CC3)c21` [Example 11, N-(4-chlorobenzyl)-8-[3-(1,1-dioxido-4-thiomorpholinyl)-1-propynyl]-1-methyl-6-(4-morpholinylmethyl)-4-oxo-1,4-dihydro-3-quinolinecarboxamide], the melting point was in the range of 220 to 222 °C. Also, the IC50 on VZV polymerase was 0.18 µM. The same compound came in with an IC50 against HSV polymerase of 0.28 µM. Moreover, inhibition at HCMV polymerase was half-maximal at 0.36 µM (IC50).

`Cn1cc(C(=O)NCc2ccc(Cl)cc2)c(=O)c2cc(CN3CCOCC3)cc(C#CCn3cnc(Cl)c3Cl)c21` [Example 13, N-(4-chlorobenzyl)-8-[3-(4,5-dichloro-1H-imidazol-1-yl)prop-1-ynyl]-1-methyl-6-(morpholin-4-ylmethyl)-4-oxo-1,4-dihydroquinoline-3-carboxamide] came in with a melting point of 178 to 181 °C. Moreover, on VZV polymerase, the IC50 is 0.25 µM. In addition, on HSV polymerase, the IC50 came out at 0.49 µM. This compound displayed an IC50 against HCMV polymerase of 0.5 µM.

Compound `Cn1cc(C(=O)NCc2ccc(Cl)cc2)c(=O)c2cc(CN3CCOCC3)cc(C#Cc3ccccn3)c21` [Example 15, N-(4-chlorobenzyl)-1-methyl-6-(morpholin-4-ylmethyl)-4-oxo-8-(pyridin-2-ylethynyl)-1,4-dihydroquinoline-3-carboxamide] showed a melting point of 234 to 236 °C. Further, it took 0.14 µM to reach half-maximal inhibition against VZV polymerase (IC50). This compound also yielded an IC50 against HSV polymerase of 0.26 µM. Also, the IC50 against HCMV polymerase came to 0.32 µM.

`Cn1cc(C(=O)NCc2ccc(Cl)cc2)c(=O)c2cc(CN3CCOCC3)cc(C#Cc3cccnc3)c21` [Example 16, N-(4-chlorobenzyl)-1-methyl-6-(morpholin-4-ylmethyl)-4-oxo-8-(pyridin-3-ylethynyl)-1,4-dihydroquinoline-3-carboxamide] yielded a melting point of 195 to 197 °C. This compound displayed a half-inhibitory concentration (IC50) against VZV polymerase of 0.15 µM. Inhibition at HSV polymerase was half-maximal at 0.28 µM (IC50). At HCMV polymerase, the IC50 worked out at 0.47 µM.

For the compound `Cn1cc(C(=O)NCc2ccc(Cl)cc2)c(=O)c2cc(CN3CCOCC3)cc(C#Cc3ccncc3)c21` [Example 17, N-(4-chlorobenzyl)-1-methyl-6-(morpholin-4-ylmethyl)-4-oxo-8-(pyridin-4-ylethynyl)-1,4-dihydroquinoline-3-carboxamide], the melting point lay in the range of 200 to 202 °C. This compound yielded a 50% inhibitory concentration (IC50) against VZV polymerase of 0.11 µM. Moreover, inhibition at HSV polymerase was half-maximal at 0.21 µM (IC50). This compound showed an IC50 against HCMV polymerase of 0.42 µM.

As for `Cn1cc(C(=O)NCc2ccc(Cl)cc2)c(=O)c2cc(CN3CCOCC3)cc(C#CCn3ccnc3)c21` [Example 23, N-(4-chlorobenzyl)-8-[3-(1 H-imidazol-1-yl)prop-1-ynyl]-1-methyl-6-(morpholin-4-ylmethyl)-4-oxo-1,4-dihydroquinoline-3-carboxamide], the melting point lay within 178 to 180 °C. In addition, the IC50 at VZV polymerase was 0.1 µM. The compound also yielded an IC50 against HSV polymerase of 0.22 µM. Moreover, the IC50 at HCMV polymerase was determined as 0.33 µM.
